Assay results taken from PubChem BioAssay (NCI).
Where “and” joins values, the source holds several entries; their conditions need not be identical. Equal entries are not always repeated.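 Cultured in 96-well plates, cells were exposed to test compound for 48 hours across five concentrations. Abbreviation: GI50, concentration required for 50% inhibition of growth. TGI: concentration producing complete growth inhibition.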

Experiments:
Assay in all cases: NCI tumour cell line growth inhibition, 48 h
OVCAR-8 ovarian = tested on: OVCAR-8 ovarian
TK-10 renal = tested on: TK-10 renal
HCT-116 colon = tested on: HCT-116 colon
HS 578T breast = tested on: HS 578T breast
MDA-MB-231 breast = tested on: MDA-MB-231 breast
SNB-75 CNS = tested on: SNB-75 CNS
NCI/ADR-RES ovarian = tested on: NCI/ADR-RES ovarian
RPMI-8226 leukemia = tested on: RPMI-8226 leukemia
MALME-3M melanoma = tested on: MALME-3M melanoma
RXF 393 renal = tested on: RXF 393 renal

Structure (SMILES)	GI50 (OVCAR-8 ovarian)	TGI (OVCAR-8 ovarian)	GI50 (TK-10 renal)	TGI (TK-10 renal)	GI50 (HCT-116 colon)	TGI (HCT-116 colon)	GI50 (HS 578T breast)	TGI (HS 578T breast)	GI50 (MDA-MB-231 breast)	TGI (MDA-MB-231 breast)	GI50 (SNB-75 CNS)	TGI (SNB-75 CNS)	GI50 (NCI/ADR-RES ovarian)	TGI (NCI/ADR-RES ovarian)	GI50 (RPMI-8226 leukemia)	TGI (RPMI-8226 leukemia)	GI50 (MALME-3M melanoma)	TGI (MALME-3M melanoma)	GI50 (RXF 393 renal)	TGI (RXF 393 renal)
O=C(CCN1CCCN(c2cnc3ccccc3n2)CC1)c1csc2ccccc12	21.6 µM	48.4 µM	16.1 µM	29.5 µM	16.5 µM	30.1 µM	20 µM	51.5 µM	21.2 µM	37 µM	17.2 µM	31.6 µM	21.3 µM	49.5 µM	12.6 µM	41.8 µM	18 µM	32.1 µM	19.4 µM	37.5 µM
NC1(C(=O)N[C@@H](CCO)c2ccc(Cl)cc2)CCN(c2ncnc3[nH]ccc23)CC1	> 4.3 µM and 42.5 µM	> 100 µM	1.04 µM and 2.56 µM	> 69.7 µM	2.75 µM and 10.7 µM	> 10 µM and 78.6 µM	0.177 µM and 0.421 µM		> 3.44 µM and 41 µM	> 100 µM	0.245 µM and 0.11 µM	> 3.28 µM and 2.19 µM	> 100 µM	> 100 µM	> 2.61 µM and 27.3 µM	> 81.8 µM	0.977 µM and 2.38 µM	> 3.54 µM and 18.7 µM	0.13 µM and 0.354 µM	0.69 µM and 5.83 µM
CN(C)C1CN(C(=O)c2cc(-c3ccc4ncnc(N5CCc6cc(F)c(Cl)cc65)c4c3)cnc2N)C1	0.819 µM	> 100 µM	0.786 µM	4.95 µM	0.728 µM		0.241 µM	1.31 µM	0.931 µM	> 100 µM	0.195 µM	2.02 µM	1.71 µM	> 100 µM	0.489 µM	2.7 µM	0.453 µM	3.66 µM	0.369 µM	2.34 µM
Nc1n[nH]c2ccc([C@@H]3Nc4ccc5cn[nH]c5c4[C@H]4C5CCC(C5)[C@@H]34)cc12 (stereo partly drawn)	0.606 µM	> 100 µM	15.1 µM	> 100 µM	0.442 µM	> 100 µM	0.389 µM	> 100 µM	0.874 µM	> 53.4 µM	0.171 µM	3.59 µM	0.887 µM	> 24.1 µM	0.346 µM	11.1 µM	0.522 µM	> 100 µM	0.236 µM	0.724 µM
c1ccc(CC(Nc2cccnc2)c2ccccc2)cc1 (stereo not drawn)		> 100 µM		94.9 µM		30.1 µM		95.2 µM		48.7 µM		60.1 µM		68.2 µM		56.5 µM		72.4 µM		51.2 µM
COc1cc(C(=O)NN=C2c3ccccc3-c3ccccc32)cc(OC)c1OC	4.93 µM	39 µM	7.86 µM	32.6 µM	2.71 µM	> 100 µM	3.5 µM	26.3 µM	2.93 µM	20 µM	2.86 µM	21 µM	2.06 µM	11.7 µM	3.5 µM	> 100 µM	2.45 µM	16.7 µM	2.76 µM	29.3 µM
CCCCCCCCCC[C@H](O)[C@H]1CC[C@@H]([C@@H](O)CC[C@H](O)[C@@H]2CCC(CCCCCCC[C@@H](O)CC3=C[C@H](C)OC3=O)O2)O1 (stereo partly drawn)	4.09 µM		4.26 µM	20.9 µM	0.507 µM	2.65 µM and 20.7 µM		4.86 µM		7.03 µM and 44.2 µM	9.29 µM	9.56 µM and 28.1 µM	2.63 µM	4.08 µM and 19.6 µM		4.03 µM		12.3 µM		19.8 µM
O=c1/c(=C\c2ccc(Br)cc2)sc2n1C(c1ccc(Br)cc1)C1=C(N=2)c2ccc3ccccc3c2OCC1 (stereo not drawn)	> 100 µM	> 100 µM	> 100 µM	> 100 µM	> 100 µM	> 100 µM	> 100 µM	> 100 µM	> 100 µM	> 100 µM	> 100 µM	> 100 µM	> 100 µM	> 100 µM	> 100 µM	> 100 µM	> 100 µM	> 100 µM	> 100 µM	> 100 µM
COc1ccc(/C=C\c2cc(OC)c(OC)c(OC)c2)c(NS(=O)(=O)c2ccc(F)cc2)c1O	0.128 µM	> 100 µM	2.25 µM	> 100 µM	0.0428 µM	> 100 µM	0.113 µM	> 100 µM	0.0977 µM	70.9 µM	0.0349 µM	> 100 µM	0.179 µM	3.4 µM	0.0448 µM	18.9 µM	10.2 µM	> 100 µM	0.0542 µM	> 100 µM
COc1cc2c(cc1OCCCN1CCN(C(=S)SCCC(C#N)(c3ccccc3)c3ccccc3)CC1)N=C[C@@H]1CCCN1C2=O	1.31 µM	> 48.3 µM	1.09 µM	2.87 µM	0.388 µM	1.56 µM	0.56 µM	3.68 µM	1.32 µM	3.19 µM	1.31 µM	2.9 µM	3.69 µM	> 51.5 µM	0.42 µM		0.938 µM	2.19 µM	0.192 µM	0.36 µM
Nc1c(C(=O)Nc2cccc(C(F)(F)F)c2)sc2nc3c(cc12)CCCCCC3	2.24 µM	6.82 µM	2.18 µM	5.82 µM	1.69 µM	4.34 µM	3.25 µM	9.92 µM	3.09 µM	10.6 µM	1.73 µM	3.47 µM	2.69 µM	10.9 µM	2.96 µM	17.5 µM	3.54 µM	11.3 µM	1.63 µM	3.21 µM
Cc1cnc(-c2ccc(-c3ccc(NC(=O)Nc4c(F)cc(F)cc4F)cc3F)c3c2C(=O)NC3)[nH]1	1.25 µM and 2.08 µM	3.77 µM and 9.45 µM	2.06 µM and 5.43 µM	7.67 µM and 17.6 µM	0.307 µM and 1.03 µM	2.8 µM and 2.71 µM	0.351 µM and 1.07 µM	5.19 µM and 13.5 µM	1.59 µM and 2.51 µM	8.16 µM and 11.3 µM	2.96 µM	10.9 µM	> 100 µM	> 100 µM	1.02 µM and 0.715 µM	6.02 µM and > 33 µM	0.124 µM and 0.106 µM	2.37 µM and 2.8 µM	1.15 µM and 1.32 µM	3.6 µM and 5.58 µM
COC(=O)Nc1nc2ccc(C(=O)c3ccc(F)cc3)cc2[nH]1	0.639 µM	> 31.6 µM	1.72 µM	58.3 µM	0.146 µM	> 100 µM	0.146 µM	0.502 µM	0.563 µM	13.6 µM	0.205 µM	12.4 µM	0.108 µM	0.562 µM	0.434 µM		0.193 µM	26.9 µM	0.763 µM	> 100 µM
CC(=O)N[C@@H](Cc1ccc(OP(=O)(O)O)cc1)C(=O)N[C@H]1CCC(=O)N2CCC[C@@H](C(=O)NC3CCc4ccccc43)N2C1=O (stereo partly drawn)	> 25 µM	> 25 µM	> 25 µM	> 25 µM	> 25 µM	> 25 µM	> 25 µM	> 25 µM	> 25 µM	> 25 µM	> 25 µM	> 25 µM	> 25 µM	> 25 µM	> 25 µM	> 25 µM	> 25 µM	> 25 µM	> 25 µM	> 25 µM
C[C@]12CC[C@H]3[C@@H](CC[C@]4(O)C[C@@H](O[C@@H]5O[C@H](CO)[C@@H](O[C@@H]6OC[C@@H](O)[C@H](O)[C@H]6O)[C@H](O)[C@H]5O)CC[C@]34C=O)[C@@]1(O)CC[C@@H]2C1=CC(=O)OC1	1.62 µM	5.56 µM	1.19 µM	4.49 µM	1.47 µM	5.77 µM	0.845 µM	4.31 µM	3.38 µM	22 µM	1.15 µM	6.65 µM	0.999 µM	2.4 µM	1.9 µM	14.6 µM	1.49 µM	3.45 µM	1.25 µM	3.11 µM
CC/C(=C(/c1ccc(OCCN(C)C)cc1)c1ccc(OC(=O)CCCCCCCCC(=O)c2c(C)[nH]c(/C=C3\N=C(c4ccc[nH]4)C=C3OC)c2C)cc1)c1ccccc1	9.06 µM	> 100 µM	21 µM	> 100 µM	3.36 µM	21.8 µM	4.74 µM	85 µM	3.4 µM	18.1 µM	6.25 µM	> 100 µM	31.7 µM	> 100 µM	3.75 µM	> 100 µM	40.7 µM	> 100 µM	13.9 µM	> 100 µM
Cc1cc(-c2cc(OC(=O)c3ccccc3)ccc2Cl)cc2nnc(Nc3ccc(OCCN4CCCC4)cc3)nc12	1.7 µM	3.67 µM	1.63 µM	3.03 µM	1.59 µM	3.16 µM	1.58 µM	3.94 µM	1.05 µM	2.31 µM	0.508 µM	1.89 µM	1.86 µM	4.1 µM	1.6 µM	3.63 µM	1.45 µM	2.93 µM	1.16 µM	2.48 µM
CN1CCN(CCC=C2c3ccccc3Sc3ccc(S(=O)(=O)N(C)C)cc32)CC1	5.85 µM and 15.2 µM	24.6 µM and 36.4 µM	2.22 µM and 7.92 µM	5.05 µM and 23.8 µM	3 µM and 3.35 µM	> 100 µM and 23.8 µM	3.4 µM and 3 µM	23.2 µM and 14.8 µM	1.82 µM and 4.4 µM	4.43 µM and 16.8 µM			5.5 µM and 13.2 µM	26.5 µM and 37.5 µM	2.33 µM and 2.6 µM	6.55 µM and 8.62 µM	1.73 µM and 2.54 µM	3.5 µM and 9.72 µM	1.68 µM	5.52 µM
COc1c(B(O)O)cccc1-c1nc2c(F)cc3n[nH]c(C)c3c2c2c1CCCC2	1.22 µM	> 50 µM	0.0215 µM	49.6 µM	0.314 µM	> 50 µM	0.118 µM	> 50 µM	0.0412 µM	> 50 µM	0.0152 µM	0.168 µM	1.48 µM	> 50 µM	0.655 µM	4.81 µM	2.5 µM	7.73 µM	0.044 µM	0.924 µM
O=C(CN1CCN(C(=O)c2ccco2)CC1)Nc1ccc(Cl)cc1C(=O)c1ccccc1Cl	11.5 µM	53.8 µM	10.2 µM	36.2 µM	13 µM	26.9 µM	10.8 µM	33 µM	9.51 µM	46.1 µM	2.73 µM	28.3 µM	10 µM	43.8 µM	1.33 µM	12.1 µM	7 µM	22.2 µM	3.85 µM	18 µM
Cc1c(Cl)c(C)c(Cl)c(O)c1Cl		> 100 µM		82.3 µM		39.6 µM		61.2 µM		> 100 µM		> 100 µM		72.6 µM		68.3 µM		54.3 µM		> 100 µM
O=C1OCC2=C1C(c1cccc(Cl)c1)c1cc3c(cc1N2CCO)CCC3 (stereo not drawn)	0.0577 µM	2.98 µM	0.0464 µM	16.3 µM	0.0447 µM	2.92 µM	0.0453 µM	22.2 µM	0.217 µM	2.21 µM	0.027 µM	17.7 µM	0.0289 µM	0.108 µM	0.0386 µM	10.1 µM	0.0494 µM	22.7 µM	0.0238 µM	
CCc1ncc(CO)n1Cc1cccc2ccccc12		> 100 µM		> 100 µM		> 100 µM		> 100 µM		> 100 µM		> 100 µM		> 100 µM		> 100 µM		> 100 µM		> 100 µM
COC(=O)c1c2c(c(C)[n+]([O-])c1C)C(=O)C(NCc1ccc(O)cc1)=CC2=O	1.08 µM	6.47 µM			0.333 µM	1.24 µM	2.3 µM	6.98 µM	1.38 µM	4.34 µM	1.67 µM	3.06 µM	2.2 µM	6.37 µM	1.78 µM	4.18 µM	0.256 µM	0.93 µM	1.5 µM	2.98 µM
CCN(CC)CC(O)c1cc(-c2ccc(Cl)cc2)nc2c(C)c(Cl)ccc12 (stereo not drawn)			1.85 µM	3.28 µM	1.66 µM	3.18 µM	1.87 µM	4.33 µM	1.47 µM	3.03 µM	1.37 µM	2.65 µM	1.71 µM	3.16 µM	2.41 µM	5.71 µM	1.93 µM	3.98 µM	1.71 µM	3.14 µM
